In patent publication US7998965B2, “Glutamate aggrecanase inhibitors” (Wyeth LLC, priority 2005, dated 2011):
Where two headings read alike, the source gives them in different places.

What was measured:
[1] = target: T1, purified recombinant human Aggrecanase-2 (Ag2t-Phe628-Strep) (Homo sapiens, UniProt Q9UNA0); experiment: In vitro fluorescence screen for Aggrecanase-2 inhibitors; assay type: biochemical; details: read-out: Agg 2 IC50
T1 construct: the form used is denoted as Ag2t-Phe628-Strep (MW=41,737)
T1 sequence (Q9UNA0 262-628): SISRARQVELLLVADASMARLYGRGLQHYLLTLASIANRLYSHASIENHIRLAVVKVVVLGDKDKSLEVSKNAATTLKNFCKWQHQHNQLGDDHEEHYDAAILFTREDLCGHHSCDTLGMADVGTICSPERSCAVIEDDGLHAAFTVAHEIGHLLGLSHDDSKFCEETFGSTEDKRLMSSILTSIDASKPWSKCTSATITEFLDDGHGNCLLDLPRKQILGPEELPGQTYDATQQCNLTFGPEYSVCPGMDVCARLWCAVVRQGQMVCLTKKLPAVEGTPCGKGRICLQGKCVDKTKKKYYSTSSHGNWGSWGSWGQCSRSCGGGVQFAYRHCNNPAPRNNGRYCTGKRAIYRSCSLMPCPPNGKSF

[2] = target: T2, purified recombinant human Aggrecanase-1 (rAgg1) (Homo sapiens, UniProt O75173); experiment: In vitro fluorescence screen for Aggrecanase-1 inhibitors; assay type: biochemical; details: read-out: Agg1 IC50
T2 sequence (O75173 213-837): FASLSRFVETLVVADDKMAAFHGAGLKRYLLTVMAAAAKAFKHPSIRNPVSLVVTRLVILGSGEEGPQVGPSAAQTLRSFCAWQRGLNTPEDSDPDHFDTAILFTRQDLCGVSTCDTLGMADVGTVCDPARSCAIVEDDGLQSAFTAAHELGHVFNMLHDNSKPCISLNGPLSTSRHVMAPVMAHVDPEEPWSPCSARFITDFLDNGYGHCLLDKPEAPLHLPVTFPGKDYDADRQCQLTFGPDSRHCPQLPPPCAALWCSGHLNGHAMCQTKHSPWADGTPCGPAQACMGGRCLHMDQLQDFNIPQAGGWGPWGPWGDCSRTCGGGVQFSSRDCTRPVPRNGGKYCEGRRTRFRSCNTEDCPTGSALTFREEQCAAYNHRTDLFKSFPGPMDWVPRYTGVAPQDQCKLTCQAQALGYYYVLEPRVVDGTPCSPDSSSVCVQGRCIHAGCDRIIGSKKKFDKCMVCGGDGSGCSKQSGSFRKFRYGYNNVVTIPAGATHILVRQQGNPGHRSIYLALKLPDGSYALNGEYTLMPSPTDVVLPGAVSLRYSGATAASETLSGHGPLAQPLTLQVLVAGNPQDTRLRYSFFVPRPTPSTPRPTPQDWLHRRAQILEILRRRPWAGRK

SMILES | IC50 ([1]; Table 2) [nM] | IC50 ([2]; Table 2) [nM] | IC50 ([1]; Table 3) [nM] | IC50 ([2]; Table 3) [nM]
CCc1cccc(OCc2ccc(-c3ccc(C(=O)N[C@@H](CCC(=O)O)C(=O)NC(C)(C)Cc4ccccc4)cc3)cc2)c1 [Example 15AA, N-(1,1-dimethyl-2-phenylethyl)-N^2-({4′-[(3-ethylphenoxy)methyl]biphenyl-4-yl}carbonyl)-L-α-glutamine] | 327 | 44 |  | 
COc1cc(COc2cccc(-c3ccc(C(=O)N[C@@H](CCC(=O)O)C(=O)NCc4cc(OC)c(OC)c(OC)c4)cc3)c2)cc(OC)c1 [Example 15L, N^2-({3′-[(3,5-dimethoxybenzyl)oxy]biphenyl-4-yl}carbonyl)-N-(3,4,5-trimethoxybenzyl)-L-α-glutamine] |  |  | 413 | 47
COc1cc(COc2ccc(-c3ccc(C(=O)N[C@@H](CCC(=O)O)C(=O)NC(C)(C)Cc4ccc(F)cc4)cc3)cc2)cc(OC)c1 [Example 15N, N^2-({4′-[(3,5-dimethoxybenzyl)oxy]biphenyl-4-yl}carbonyl)-N-[2-(4-fluorophenyl)-1,1-dimethylethyl]-L-α-glutamine] |  |  | 103 | 91
CC(C)(Cc1ccccc1)NC(=O)[C@H](CCC(=O)O)NC(=O)c1ccc(-c2ccc(COc3cc(C(F)(F)F)cc(C(F)(F)F)c3)cc2)cc1 [Example 15O, N^2-[(4′-{[3,5-bis(trifluoromethyl)phenoxy]methyl}biphenyl-4-yl)carbonyl]-N-(1,1-dimethyl-2-phenylethyl)-L-α-glutamine] |  |  | 3130 | 52
CC(C)(Cc1ccccc1)NC(=O)[C@H](CCC(=O)O)NC(=O)c1ccc(-c2ccc(COc3ccc4c(c3)OCO4)cc2)cc1 [Example 15P, N^2-({4′-[(1,3-benzodioxol-5-yloxy)methyl]biphenyl-4-yl}carbonyl)-N-(1,1-dimethyl-2-phenylethyl)-L-α-glutamine] |  |  | 255 | < 30

Continued, values first:

IC50 ([1]; Table 2) [nM] | IC50 ([2]; Table 2) [nM] | IC50 ([1]; Table 3) [nM] | IC50 ([2]; Table 3) [nM] | SMILES
> 22000 | ~22000 |  |  | COc1cccc(C#Cc2ccc(C(=O)N[C@@H](CCC(=O)O)C(=O)NCc3ccccc3)cc2)c1 [Example 12L, N-benzyl-N^2-{4-[(3-methoxyphenyl)ethynyl]benzoyl}-L-α-glutamine]
527 | 53 |  |  | COc1cccc(OCc2ccc(-c3ccc(C(=O)N[C@@H](CCC(=O)O)C(=O)NC(C)(C)Cc4ccccc4)cc3)cc2)c1 [Example 15BB, N-(1,1-dimethyl-2-phenylethyl)-N^2-({4′-[(3-methoxyphenoxy)methyl]biphenyl-4-yl}carbonyl)-L-α-glutamine]
1590 | 430 |  |  | O=C(O)CC[C@H](NC(=O)c1ccc(-c2ccc(OCc3cccc(F)c3)cc2)cc1)C(=O)NCc1ccccc1 [Example 15I, N-benzyl-N^2-({4′-[(3-fluorobenzyl)oxy]biphenyl-4-yl}carbonyl)-L-α-glutamine]
~3130 | 510 |  |  | O=C(O)CC[C@H](NC(=O)c1ccc(-c2ccc(OCc3ccccc3)cc2)cc1)C(=O)NCc1ccccc1 [Example 15J, N-benzyl-N^2-{[4′-(benzyloxy)biphenyl-4-yl]carbonyl}-L-α-glutamine]
 |  | 379 | < 30 | COc1cc(CNC(=O)[C@H](CCC(=O)O)NC(=O)c2ccc(-c3cccc(OCc4ccccc4)c3)cc2)cc(OC)c1OC [Example 15K, N^2-{[3′-(benzyloxy)biphenyl-4-yl]carbonyl}-N-(3,4,5-trimethoxybenzyl)-L-α-glutamine]
 |  | 789 | < 30 | COc1cccc(COc2cccc(-c3ccc(C(=O)N[C@@H](CCC(=O)O)C(=O)NCc4cc(OC)c(OC)c(OC)c4)cc3)c2)c1 [Example 15M, N^2-({3′-[(3-methoxybenzyl)oxy]biphenyl-4-yl}carbonyl)-N-(3,4,5-trimethoxybenzyl)-L-α-glutamine]
 |  | 1940 | 158 | COc1cc(OC)cc(OCc2ccc(-c3ccc(C(=O)N[C@@H](CCC(=O)O)C(=O)NCc4cccc(C)c4)cc3)cc2)c1 [Example 15Q, N^2-({4′-[(3,5-dimethoxyphenoxy)methyl]biphenyl-4-yl}carbonyl)-N-(3-methylbenzyl)-L-α-glutamine]
